# Measured values as given in ChEMBL document CHEMBL6071207, “In Vivo-Active Soluble Epoxide Hydrolase-Targeting PROTACs with Improved Potency and Stability” (ACS Med Chem Lett, 2024).
# The source made the active and inactive calls. The calls are words filed in the database; no cut-off is given here.
# Assays:
# [1] = AUC (0 to infinity) in male CD-1 mouse at 10 mg/kg, ip measured up to 24 hrs by LC-MS/MS analysis; format: ADME, organism-based; details: in vivo
# [2] = Tmax in male CD-1 mouse at 10 mg/kg, ip measured up to 24 hrs by LC-MS/MS analysis; format: ADME, organism-based; details: in vivo
# HepG2 = assay: Cytotoxicity against human HepG2 cells assessed as cell viability at 1 uM incubated for 24 hrs by MTT assay; details: HepG2, 24 h, read-out: Activity
# [3] = MRT (0 to infinity) in male CD-1 mouse at 10 mg/kg, ip measured up to 24 hrs by LC-MS/MS analysis; format: ADME, organism-based; details: in vivo
# [4] = target: T1, Bifunctional epoxide hydrolase 2 (Mus musculus, UniProt P34914); assay: Inhibition of mouse recombinant sEH using fluorogenic substrate
# T1 sequence (P34914 whole entry): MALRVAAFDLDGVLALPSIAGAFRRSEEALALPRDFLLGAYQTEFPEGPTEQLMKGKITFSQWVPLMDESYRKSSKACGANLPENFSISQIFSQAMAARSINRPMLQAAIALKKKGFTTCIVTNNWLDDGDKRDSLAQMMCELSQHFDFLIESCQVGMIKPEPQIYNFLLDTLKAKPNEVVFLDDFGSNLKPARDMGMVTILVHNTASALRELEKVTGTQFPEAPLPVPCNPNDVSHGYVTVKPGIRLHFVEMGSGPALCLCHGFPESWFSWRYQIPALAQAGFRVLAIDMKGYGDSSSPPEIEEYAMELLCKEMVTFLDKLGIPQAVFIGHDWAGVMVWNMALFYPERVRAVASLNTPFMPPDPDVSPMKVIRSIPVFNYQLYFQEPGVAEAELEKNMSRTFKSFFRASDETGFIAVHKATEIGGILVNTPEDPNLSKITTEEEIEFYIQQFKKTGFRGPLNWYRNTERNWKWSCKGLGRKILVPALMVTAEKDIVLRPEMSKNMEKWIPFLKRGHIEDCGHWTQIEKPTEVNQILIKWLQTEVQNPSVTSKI
# [5] = Half life in male CD-1 mouse at 10 mg/kg, ip measured up to 24 hrs by LC-MS/MS analysis; format: ADME, organism-based; details: in vivo
# [6] = Cmax in male CD-1 mouse at 10 mg/kg, ip measured up to 24 hrs by LC-MS/MS analysis; format: ADME, organism-based; details: in vivo
# [7] = Metabolic stability in mouse liver microsome assessed as parent compound remaining incubated for 5 to 45 mins in absence of NADPH by UPLC-MS/MS analysis; format: ADME; details: microsomes, time 5-45 min
# HEK293T [8] = assay: Inhibition of IRE1alpha phosphorylation in HEK293T cells at 100 nM pretreated with compound for 12 hrs followed by thapsigargin addition and measured after 24 hrs by immunoblotting analysis; format: cell-based; details: Homo sapiens, time 36.0 hrs
# [9] = Metabolic stability in mouse liver microsome assessed as intrinsic clearance incubated for 5 to 45 mins in presence of NADPH by UPLC-MS/MS analysis; format: ADME; details: liver microsomes, time 5-45 min, read-out: CLH
# [10] = target: T2, Eukaryotic translation initiation factor 2-alpha kinase 3 (Homo sapiens) (UniProt Q9NZJ5); assay: Inhibition of PERK phosphorylation in HEK293T cells at 100 nM pretreated with compound for 12 hrs followed by thapsigargin addition and measured after 24 hrs by immunoblotting analysis; format: cell-based; details: time 36.0 hrs
# T2 sequence (whole entry): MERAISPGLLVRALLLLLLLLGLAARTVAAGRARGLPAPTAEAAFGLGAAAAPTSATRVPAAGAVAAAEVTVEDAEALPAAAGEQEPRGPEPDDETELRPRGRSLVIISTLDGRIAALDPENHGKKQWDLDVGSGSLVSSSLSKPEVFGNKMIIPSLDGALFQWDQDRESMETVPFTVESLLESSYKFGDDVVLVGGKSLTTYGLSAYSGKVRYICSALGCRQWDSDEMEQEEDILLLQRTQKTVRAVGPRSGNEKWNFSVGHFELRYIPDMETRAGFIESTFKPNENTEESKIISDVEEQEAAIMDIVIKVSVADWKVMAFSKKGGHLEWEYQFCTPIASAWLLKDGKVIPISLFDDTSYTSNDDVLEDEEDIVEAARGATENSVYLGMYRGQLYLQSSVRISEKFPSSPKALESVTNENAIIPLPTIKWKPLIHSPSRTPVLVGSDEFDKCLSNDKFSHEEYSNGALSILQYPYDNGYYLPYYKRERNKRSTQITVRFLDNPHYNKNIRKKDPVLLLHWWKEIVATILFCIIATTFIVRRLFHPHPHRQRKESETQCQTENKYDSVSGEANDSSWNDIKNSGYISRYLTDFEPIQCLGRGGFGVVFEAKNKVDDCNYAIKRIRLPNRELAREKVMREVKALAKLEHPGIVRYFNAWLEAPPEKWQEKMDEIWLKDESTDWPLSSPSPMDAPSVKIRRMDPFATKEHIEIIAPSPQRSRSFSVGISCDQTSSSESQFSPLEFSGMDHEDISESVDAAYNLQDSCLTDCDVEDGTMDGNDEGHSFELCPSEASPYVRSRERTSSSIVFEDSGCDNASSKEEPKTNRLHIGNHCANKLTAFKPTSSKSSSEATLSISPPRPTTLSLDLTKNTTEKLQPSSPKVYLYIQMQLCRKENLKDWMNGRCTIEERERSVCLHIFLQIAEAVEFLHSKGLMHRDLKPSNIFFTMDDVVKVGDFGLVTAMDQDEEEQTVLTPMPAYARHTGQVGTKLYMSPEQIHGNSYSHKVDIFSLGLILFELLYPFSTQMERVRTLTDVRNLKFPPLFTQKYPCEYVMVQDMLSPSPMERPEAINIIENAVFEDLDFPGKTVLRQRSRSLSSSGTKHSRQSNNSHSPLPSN
# [11] = Chemical stability of compound in cell culture medium assessed as half life measured for 24 hrs by LC-MS analysis; format: physicochemical
# [12] = Metabolic stability in mouse liver microsome assessed as half life incubated for 5 to 45 mins in presence of NADPH by UPLC-MS/MS analysis; format: ADME; details: liver microsomes, time 5-45 min
# [13] = target: Eukaryotic translation initiation factor 2 subunit 1 (Homo sapiens) (UniProt P05198); assay: Inhibition of eIF2alpha phosphorylation in HEK293T cells at 100 nM pretreated with compound for 12 hrs followed by thapsigargin addition and measured after 24 hrs by immunoblotting analysis; format: cell-based; details: time 36.0 hrs
# [14] = Chemical stability of compound in cell culture medium assessed as degradation measured after 24 hrs by LC-MS analysis; format: physicochemical; details: read-out: Drug degradation
# [15] = target: Protein cereblon/Bifunctional epoxide hydrolase 2 (Homo sapiens, UniProt P34913+Q96SW2); assay: PROTAC activity at sEH/CRBN in human HepG2 cells assessed as induction of sEH degradation measured for 24 hrs by immunoblot analysis; format: cell-based
# HEK293T [16] = assay: Inhibition of IRE1alpha phosphorylation in HEK293T cells at 100 to 1000 nM pretreated with compound for 12 hrs followed by thapsigargin addition and measured after 24 hrs by immunoblotting analysis; format: cell-based; details: Homo sapiens, dose 100-1000 nM, time 36.0 hrs
# [17] = target: Eukaryotic translation initiation factor 2 subunit 1 (Homo sapiens) (UniProt P05198); assay: Inhibition of eIF2alpha phosphorylation in HEK293T cells at 100 to 1000 nM pretreated with compound for 12 hrs followed by thapsigargin addition and measured after 24 hrs by immunoblotting analysis; format: cell-based; details: dose 100-1000 nM, time 36.0 hrs
# [18] = target: T3, Protein cereblon/Bifunctional epoxide hydrolase 2 (Mus musculus) (UniProt P34914+Q8C7D2); assay: In-vivo PROTAC activity at sEH/CRBN in Male C57BL/6J mouse assessed as reduction in sEH level in BAT at 12 mg/kg, ip measured after 24 hrs by immunoblotting analysis; format: functional, organism-based
# [19] = target: T3, Protein cereblon/Bifunctional epoxide hydrolase 2 (Mus musculus); assay: In-vivo PROTAC activity at sEH/CRBN in Male C57BL/6J mouse assessed as reduction in sEH level in liver at 12 mg/kg, ip measured after 24 hrs by immunoblotting analysis; format: functional, organism-based
# [20] = target: T2, Eukaryotic translation initiation factor 2-alpha kinase 3 (Homo sapiens); assay: Inhibition of PERK phosphorylation in HEK293T cells at 100 to 1000 nM pretreated with compound for 12 hrs followed by thapsigargin addition and measured after 24 hrs by immunoblotting analysis; format: cell-based; details: dose 100-1000 nM, time 36.0 hrs
# HEK-293T [21] = assay: Induction of apoptosis in HEK293T cells assessed as chromatin condensation by measuring improvement in cell survival pretreated with compound for 12 hrs followed by thapsigargin addition and measured after 24 hrs by Hoechst33258 staining based analysis; format: functional; details: Homo sapiens, time 36.0 hrs
# HEK-293T [22] = assay: Induction of apoptosis in HEK293T cells assessed as reduction in thapsigargin-induced cell death pretreated with compound for 12 hrs followed by thapsigargin addition and measured after 24 hrs by propidium iodide staining based analysis; format: functional; details: Homo sapiens, time 36.0 hrs
# Sequence of Eukaryotic translation initiation factor 2 subunit 1 (Homo sapiens) (P05198 whole entry): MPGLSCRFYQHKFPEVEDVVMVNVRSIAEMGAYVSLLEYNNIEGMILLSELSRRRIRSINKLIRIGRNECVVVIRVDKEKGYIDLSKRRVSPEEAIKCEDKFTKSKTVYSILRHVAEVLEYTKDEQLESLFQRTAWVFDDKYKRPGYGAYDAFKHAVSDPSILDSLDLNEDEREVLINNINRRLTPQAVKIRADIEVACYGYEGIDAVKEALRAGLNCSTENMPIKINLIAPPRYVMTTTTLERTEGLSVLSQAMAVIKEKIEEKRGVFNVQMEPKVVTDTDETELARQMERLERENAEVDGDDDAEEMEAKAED
# T3 sequence (Q8C7D2 whole entry, looked up, one chain of several): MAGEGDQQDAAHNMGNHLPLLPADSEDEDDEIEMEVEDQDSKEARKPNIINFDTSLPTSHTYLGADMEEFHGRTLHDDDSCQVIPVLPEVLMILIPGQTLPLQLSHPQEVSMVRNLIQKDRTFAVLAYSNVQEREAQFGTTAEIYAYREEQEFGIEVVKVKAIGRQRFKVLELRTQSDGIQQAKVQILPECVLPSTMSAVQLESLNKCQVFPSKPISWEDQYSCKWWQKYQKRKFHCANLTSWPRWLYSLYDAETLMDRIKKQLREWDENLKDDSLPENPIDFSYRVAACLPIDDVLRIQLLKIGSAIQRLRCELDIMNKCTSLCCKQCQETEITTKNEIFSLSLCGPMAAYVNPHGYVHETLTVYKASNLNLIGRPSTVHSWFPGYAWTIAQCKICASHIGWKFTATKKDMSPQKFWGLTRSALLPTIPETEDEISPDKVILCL
# Sequence of Protein cereblon/Bifunctional epoxide hydrolase 2 (P34913 whole entry): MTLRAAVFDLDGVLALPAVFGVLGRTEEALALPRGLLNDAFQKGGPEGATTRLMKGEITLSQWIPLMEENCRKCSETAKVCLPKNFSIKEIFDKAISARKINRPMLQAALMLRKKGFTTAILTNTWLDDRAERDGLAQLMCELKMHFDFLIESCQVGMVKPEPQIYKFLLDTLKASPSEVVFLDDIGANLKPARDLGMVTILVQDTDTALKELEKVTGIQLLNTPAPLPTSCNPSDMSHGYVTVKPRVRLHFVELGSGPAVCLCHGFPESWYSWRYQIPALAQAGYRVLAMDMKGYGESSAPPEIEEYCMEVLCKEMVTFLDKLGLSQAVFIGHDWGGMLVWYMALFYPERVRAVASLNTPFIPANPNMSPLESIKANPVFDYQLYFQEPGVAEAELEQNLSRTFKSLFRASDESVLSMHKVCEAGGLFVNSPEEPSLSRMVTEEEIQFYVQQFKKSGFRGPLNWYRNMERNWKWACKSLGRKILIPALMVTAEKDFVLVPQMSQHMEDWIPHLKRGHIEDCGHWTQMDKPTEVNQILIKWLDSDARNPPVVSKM
# Sequence of Protein cereblon/Bifunctional epoxide hydrolase 2 (Q96SW2 whole entry): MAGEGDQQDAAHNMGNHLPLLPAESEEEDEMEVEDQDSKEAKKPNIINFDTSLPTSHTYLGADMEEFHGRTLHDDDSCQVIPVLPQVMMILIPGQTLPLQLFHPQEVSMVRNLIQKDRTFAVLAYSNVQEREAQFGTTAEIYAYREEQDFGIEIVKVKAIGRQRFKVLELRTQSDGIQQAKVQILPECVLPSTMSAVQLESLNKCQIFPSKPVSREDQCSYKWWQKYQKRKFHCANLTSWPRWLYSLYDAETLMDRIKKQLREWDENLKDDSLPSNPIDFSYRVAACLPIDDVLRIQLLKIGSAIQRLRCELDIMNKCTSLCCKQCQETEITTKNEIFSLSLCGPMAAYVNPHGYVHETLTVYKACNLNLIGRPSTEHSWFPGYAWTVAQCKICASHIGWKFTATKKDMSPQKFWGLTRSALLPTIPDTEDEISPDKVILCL
compound,measurement,setting,value
O=C1CCC(N2Cc3ccc(N4CCN(CC5CCN(C(=O)CCCCCCCCNC(=O)c6ccc(O[C@H]7CC[C@H](NC(=O)Nc8ccc(OC(F)(F)F)cc8)CC7)cc6)CC5)CC4)cc3C2=O)C(=O)N1 (stereo partly drawn),AUC(0-inf),[1],31000 ng·h/mL
same,Tmax,[2],0.33 h
same,viability at 1 µM,HepG2,7%
same,MRT inf,[3],9.3 h
same,IC50,[4],4.8 nM
same,half-life,[5],7.1 h
same,Cmax,[6],3500 ng/mL
O=C1CCC(N2C(=O)c3ccc(N4CCN(CC5CCN(C(=O)CCCCCCCCC(=O)N6CCC(NC(=O)Nc7ccc(OC(F)(F)F)cc7)CC6)CC5)CC4)cc3C2=O)C(=O)N1 (stereo not drawn),AUC(0-inf),[1],61000 ng·h/mL
same,Tmax,[2],0.33 h
same,MRT inf,[3],4 h
same,IC50,[4],4.6 nM
same,half-life,[5],5.8 h
same,Cmax,[6],3000 ng/mL
O=C1CCC(N2C(=O)c3cc(F)c(N4CCN(CC5CCN(C(=O)CCCCCCCCNC(=O)c6ccc(O[C@H]7CC[C@H](NC(=O)Nc8ccc(OC(F)(F)F)cc8)CC7)cc6)CC5)CC4)cc3C2=O)C(=O)N1 (stereo partly drawn),IC50,[4],20 nM
O=C1CCC(N2C(=O)c3cccc(N4CCN(C(=O)CCCCCCCCNC(=O)c5ccc(O[C@H]6CC[C@H](NC(=O)Nc7ccc(OC(F)(F)F)cc7)CC6)cc5)CC4)c3C2=O)C(=O)N1 (stereo partly drawn),viability at 1 µM,HepG2,-47%
same,IC50,[4],0.9 nM
O=C(COc1cccc2c1C(=O)N(C1CCC(=O)NC1=O)C2=O)NCCOCCOCCOCCOCCNC(=O)c1ccc(O[C@H]2CC[C@H](NC(=O)Nc3ccc(OC(F)(F)F)cc3)CC2)cc1 (stereo partly drawn),Stability,[7],90%
same,inhibition,HEK293T [8],inactive
same,CLint scaled,[9],9200 mL/min/kg
same,inhibition,[10],inactive
same,half-life,[11],1.1 h
same,half-life,[12],0.00983 h
same,inhibition,[13],inactive
same,degraded at 24 h,[14],~100%
O=C1CCC(N2C(=O)c3cccc(N4CCN(CC5CCN(C(=O)CCCCCCCCNC(=O)c6ccc(O[C@H]7CC[C@H](NC(=O)Nc8ccc(OC(F)(F)F)cc8)CC7)cc6)CC5)CC4)c3C2=O)C(=O)N1 (stereo partly drawn),viability at 1 µM,HepG2,24%
same,IC50,[4],1.8 nM
O=C1CCC(N2C(=O)c3cc(F)c(N4CCN(C(=O)CCCCCCCCNC(=O)c5ccc(O[C@H]6CC[C@H](NC(=O)Nc7ccc(OC(F)(F)F)cc7)CC6)cc5)CC4)cc3C2=O)C(=O)N1 (stereo partly drawn),viability at 1 µM,HepG2,-6%
same,IC50,[4],2.2 nM
O=C(Nc1ccc(OC(F)(F)F)cc1)N[C@H]1CC[C@H](Oc2ccc(C(=O)O)cc2)CC1,inhibition,HEK293T [8],inactive
same,inhibition,[10],inactive
same,inhibition,[13],inactive
O=C1CCC(N2C(=O)c3cccc(NCCOCCOCCOCCOCCC(=O)N4CCC(NC(=O)Nc5ccc(OC(F)(F)F)cc5)CC4)c3C2=O)C(=O)N1 (stereo not drawn),IC50,[4],4.6 nM
O=C(COc1cccc2c1C(=O)N(C1CCC(=O)NC1=O)C2=O)NCCOCCOCCOCCCNC(=O)c1ccc(O[C@H]2CC[C@H](NC(=O)Nc3ccc(OC(F)(F)F)cc3)CC2)cc1 (stereo partly drawn),DC50,[15],> 1000 nM
same,degraded at 24 h,[14],~100%
O=C1CCC(N2C(=O)c3ccc(N4CCN(C(=O)CCCCCCCCNC(=O)c5ccc(O[C@H]6CC[C@H](NC(=O)Nc7ccc(OC(F)(F)F)cc7)CC6)cc5)CC4)cc3C2=O)C(=O)N1 (stereo partly drawn),Stability,[7],> 99%
same,CLint scaled,[9],170 mL/min/kg
same,half-life,[11],> 24 h
same,half-life,[12],0.517 h
same,IC50,[4],9.9 nM
Cc1ncsc1-c1ccc(CNC(=O)[C@@H]2C[C@@H](O)CN2C(=O)[C@@H](NC(=O)CCOCCOCCOCCOCCC(=O)N2CCC(NC(=O)Nc3ccc(OC(F)(F)F)cc3)CC2)C(C)(C)C)cc1,IC50,[4],10 nM
O=C1CCC(N2C(=O)c3ccc(N4CCN(CC5CCN(C(=O)CCCCCCCCNC(=O)c6ccc(O[C@H]7CC[C@H](NC(=O)Nc8ccc(OC(F)(F)F)cc8)CC7)cc6)CC5)CC4)cc3C2=O)C(=O)N1 (stereo partly drawn),inhibition,HEK293T [16],Active
same,inhibition,[17],Active
same,Stability,[7],> 99%
same,Activity,[18],Active
same,Activity,[19],Active
same,CLint scaled,[9],43 mL/min/kg
same,half-life,[11],> 24 h
same,inhibition,[20],Active
same,half-life,[12],> 2 h
same,AUC(0-inf),[1],58000 ng·h/mL
same,Tmax,[2],6.7 h
same,viability at 1 µM,HepG2,-38%
same,MRT inf,[3],17 h
same,Activity,HEK-293T [21],Active
same,IC50,[4],210 nM
same,half-life,[5],12 h
same,Activity,HEK-293T [22],Active
same,Cmax,[6],2800 ng/mL
